Results on 20 compounds are retold here after ChEMBL document CHEMBL1201862, “PubChem BioAssay data set” (2004).

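Compound exposure: 48 hours, 5 concentrations, 96-well plates. GI50 = concentration required for 50% inhibition of growth.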 The source made the active and inactive calls. Rule as the data show it: active = GI50 up to about 1.1 µM and inactive = higher. A value given as a limit tells only on which side of the number the result lay.

Among the test systems are DMS-273; LXFL 529; M19-MEL; RXF 631; SNB-78; DLD-1; DMS-114; HOP-18; XF498.
Common to all, as to assay: NCI tumour cell line growth inhibition, 48 h

As to `CC[C@](C)(O)C(=O)O[C@H]1C(=O)O[C@@H]2C[C@H]3C(C)=CC(=O)[C@@H](O)[C@]3(C)[C@H]3[C@@]4(O)OC[C@]32[C@@H]1[C@@H](C)[C@H]4O` [GLAUCARUBINONE], the GI50 was 0.05 µM (active) in the test with DMS-273; < 0.0111 µM (active) in the test with LXFL 529; 0.05 µM (active) in the test with M19-MEL; 0.543 µM (active) in the test with RXF 631; 0.0668 µM (active) in the test on SNB-78.

On to `Cc1ccc(NC(=O)SCCC(=O)O)cc1NC(=O)SCCC(=O)O`, for which the GI50 was > 10 µM (inactive) with DLD-1; > 100 µM (inactive) in the test with DMS-114; > 10 µM (inactive) in the test with DMS-273; > 100 µM (inactive) in the test on LXFL 529; > 100 µM (inactive) in the test on SNB-78.

Take `CC(C)c1cccc(C(C)C)c1NC(=O)C(=O)C1SC(=S)NC1=O` (stereo unspecified): the GI50 in the test on DLD-1, with DMS-273, with HOP-18, with LXFL 529, with M19-MEL and in the test on RXF 631 was > 100 µM (inactive) in each case. The GI50 in the test with SNB-78 and with XF498 was > 100 µM (inactive) throughout.

With `Oc1cc(-c2cccc(Br)c2)nc2cc3c(cc12)OCO3`, the GI50 with DLD-1 is 3.16 µM (inactive); with DMS-114, 2.85 µM (inactive); in the test with DMS-273, 4.37 µM (inactive); with HOP-18, 15.7 µM (inactive); with LXFL 529 it was 2.26 µM (inactive); with M19-MEL, 4.37 µM (inactive). The GI50 with SNB-78 was 3.37 µM (inactive); with XF498 it was 4.16 µM (inactive).

On to `COC(=O)NN1C(C)=C(C(=O)OC)C2(C#N)C(C(=O)OC)=C(C)N(NC(=O)OC)C12N` (stereo unspecified), for which the GI50 in the test on DLD-1, with DMS-114, in the test on DMS-273, in the test with HOP-18, in the test with LXFL 529 and in the test with M19-MEL was > 100 µM (inactive) each time. Also, the GI50 in the test with RXF 631, with SNB-78 and with XF498 was > 100 µM (inactive) in each case.

Take `O=c1cccccc1NCCCCCCCNc1cccccc1=O`: the GI50 was 42.6 µM (inactive) in the test on DLD-1; 33.3 µM (inactive) in the test with DMS-273; 16.9 µM (inactive) in the test on LXFL 529; 24 µM (inactive) in the test on M19-MEL; 8.02 µM (inactive) in the test with RXF 631; 47.8 µM (inactive) in the test on SNB-78. For the same compound, in the test on XF498, the GI50 was 10.6 µM (inactive).

As to `C=CCNC(=S)N1c2ccccc2NC(=O)CC1C` (stereo unspecified), the GI50 in the test with DMS-114, in the test with DMS-273, in the test on LXFL 529, in the test with M19-MEL, in the test with SNB-78 and in the test on XF498 was > 100 µM (inactive) in each case.

With `Cc1ccc(S(=O)OC2c3ccccc3Cc3ccccc32)cc1` (stereo unspecified), the GI50 with DLD-1 was 22.9 µM (inactive); in the test with DMS-114, 20.2 µM (inactive); in the test with DMS-273 it was 17.5 µM (inactive); with HOP-18, 24.8 µM (inactive); with LXFL 529, 16.4 µM (inactive); in the test on M19-MEL, 21.1 µM (inactive). For the same compound, the GI50 with RXF 631 is 17.2 µM (inactive); with SNB-78, 19.9 µM (inactive); with XF498, 15.2 µM (inactive).

For the compound `CCNC(=O)O/N=C1/C=C2CC[C@@H]3C(CC[C@@]4(C)C3CC[C@@H]4OC(=O)NCC)[C@@]2(C)CC1` (stereo partly specified), the GI50 is 5.9 µM (inactive) in the test on DLD-1; 1.66 µM (inactive) with DMS-114; 1.99 µM (inactive) in the test with DMS-273; 1.79 µM (inactive) in the test with LXFL 529; 3.13 µM (inactive) in the test with M19-MEL; 2.67 µM (inactive) in the test with SNB-78.

With `OC[C@@H]1CC#C/C=C\C#CC[C@@H]1CO`, the GI50 in the test with DLD-1 was > 100 µM (inactive); with DMS-114 it was > 100 µM (inactive); in the test on HOP-18 it was > 100 µM (inactive); in the test on M19-MEL, > 100 µM (inactive); with SNB-78, > 100 µM (inactive); in the test with XF498, 0.471 µM (active).

For `C/N=C(\SC)N(C)c1nc(=[N+](C)C)ss1.[O-][Cl+3]([O-])([O-])[O-]`, the GI50 in the test with DMS-273 is > 100 µM (inactive); with LXFL 529 it was 58.6 µM (inactive); with RXF 631 it was 2.28 µM (inactive); with SNB-78, > 100 µM (inactive); with XF498, 32.6 µM (inactive).

Turning to `N=C(N)N/N=C(/CCN1CCCC1)CC(c1ccccc1)c1c(O)c2ccccc2oc1=O` (stereo unspecified), the GI50 in the test with DLD-1, in the test with DMS-114, in the test on LXFL 529, in the test with M19-MEL, in the test on RXF 631 and with XF498 was > 100 µM (inactive) in each case.

Turning to `Cc1[nH]c2ccccc2c1CC/C(=N\Nc1ccccc1)c1ccccc1`, the GI50 with DLD-1 was > 100 µM (inactive); in the test with DMS-273, > 100 µM (inactive); in the test on RXF 631, > 100 µM (inactive); with SNB-78, > 100 µM (inactive); in the test on XF498, 78.2 µM (inactive).

`N#CC(C(=O)C(=O)Nc1ccc(Cl)c(Cl)c1)c1ccc(Cl)cc1` (stereo unspecified): the GI50 in the test on DLD-1 is 44.1 µM (inactive); in the test with DMS-114, 22.9 µM (inactive); with DMS-273, > 100 µM (inactive); in the test on HOP-18, 41 µM (inactive); in the test on LXFL 529 it was 77.1 µM (inactive); in the test on SNB-78, > 100 µM (inactive). Also, in the test on XF498, the GI50 is 61 µM (inactive).

As to `Cn1c(=O)c2nc(-c3ccc(Cl)cc3)oc2n(C)c1=O`, the GI50 in the test with DLD-1, with DMS-114, in the test on DMS-273, in the test with HOP-18, in the test with LXFL 529 and in the test on M19-MEL was > 100 µM (inactive) each time. Also, the GI50 in the test with SNB-78 and in the test on XF498 was > 100 µM (inactive) each time.

On to `CCOC(=O)/C(=C/c1ccc(OC)c(OC)c1)C(=O)c1ccccc1`, for which the GI50 in the test with DLD-1 was 15.4 µM (inactive); in the test with DMS-114, 15.2 µM (inactive); in the test with LXFL 529, 12.2 µM (inactive); in the test with M19-MEL, 19 µM (inactive); with SNB-78 it was 17.1 µM (inactive); in the test with XF498 it was 14.9 µM (inactive).

On to `C#CC[C@]12CC(=O)CC[C@H]1CC(=O)C2`, for which the GI50 in the test on DLD-1, in the test on DMS-273, with HOP-18, with LXFL 529, in the test with M19-MEL and in the test with RXF 631 was > 100 µM (inactive) each time. Moreover, the GI50 in the test with SNB-78 was > 100 µM (inactive).

As for `CCCCCCCC/C=C1\CCC(CN2CCOCC2)C1=O` (stereo unspecified), the GI50 was 2.8 µM (inactive) in the test on DLD-1; 6.41 µM (inactive) with DMS-114; 13.1 µM (inactive) with HOP-18; 4.54 µM (inactive) in the test with LXFL 529; 8.65 µM (inactive) with M19-MEL; 8.95 µM (inactive) in the test on RXF 631. The GI50 in the test on SNB-78 is 10.5 µM (inactive); with XF498, 14.2 µM (inactive).

Turning to `Cc1ccc(Oc2ccccc2N)cc1`, the GI50 in the test with DLD-1 was 35 µM (inactive); with DMS-114 it was 17.4 µM (inactive); with DMS-273, 32 µM (inactive); in the test on HOP-18, > 100 µM (inactive); in the test with LXFL 529 it was 15.7 µM (inactive); in the test on RXF 631, > 100 µM (inactive). Moreover, the GI50 with SNB-78 was 29 µM (inactive); in the test with XF498 it was 17.8 µM (inactive).

As for `CN(C)CC1CCCC/C1=N/OC(=O)c1ccc(Cl)cc1` (stereo unspecified), the GI50 with DLD-1, in the test with DMS-273, in the test with HOP-18, in the test with LXFL 529, with M19-MEL and with SNB-78 was > 100 µM (inactive) in each case. The GI50 in the test with XF498 is > 100 µM (inactive).
